We go through 6 molecules from patent US20260070887A1 (Shenzhen Zhongge Biological Technology Co., Ltd., priority 2022, published 2026).

Read-outs that look alike come from different tables or passages of the source.

The test system of one data set is OVCAR-3 cells. In words: OVCAR-3 cell proliferation (Cell Titer-Glo, 10 days). The data set is classed as cell-based, human. The method, boiled down: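 IC50 was fitted by nonlinear regression of percent inhibition versus the 0.1% DMSO control. Luminescence was read with Cell Titer-Glo after 10 days of co-culture of logarithmic-phase cells (400/well) with compound at 0.12 nM–10 μM final, in medium with 20% fetal bovine serum and 0.01 mg/mL insulin.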
A general note: In ATP-based viability assays light output follows the ATP content of the culture.

In a further data set the test system is HT-29 cells. The data set is described as follows: HT-29 cell proliferation (Cell Titer-Glo, 6 days). It is filed as cell-based. The settings on record: Homo sapiens, HT-29, 144 h. The protocol: The inhibitory effect on the KIF18A target by the compounds of the present disclosure was evaluated by testing the inhibitory effect on proliferation of HT-29 cells by the compounds of the present disclosure.
HT-29 (ATCC, HTB-38) cells were cultured in McCoy's 5a complete medium (Gibco, 12330-031) containing 10% fetal bovine serum (Gibco, 10099-141C), 100 U penicillin and […] streptomycin (Gibco, 15140-122). The Promega kit Cell Titer-Glo (Promega: G7572) was used in this method for test. • 1. HT-29 cells were cultured in T75 cell flasks (Corning, 430641) and the medium was placed in a 37° C., 5% CO2 incubator. Cells were passaged when reaching a cell density of 70%-80%, approximately twice per week. • 2. To perform the experiment, the test compounds were dissolved in DMSO to prepare a 10 mM stock solution, and the test compounds were added to the 384-well cell test plate (Corning, 3765) at the predetermined concentration using ECHO. • 3. The cell culture flask was taken out, the medium was removed, and the cells were rinsed with PBS. Then 2 mL of trypsin (with 0.25% EDTA) was added, and the flask was placed in the incubator for digestion for 4 minutes. • 4. Digestion was stopped by adding 4 mL of complete medium and the cell suspension was transferred to a centrifuge tube and centrifuged at 1000 rpm for 4 minutes. • 5. The cells were resuspended in 6 mL of complete medium, followed by cell counting. The cell density was adjusted to 4,170 cells/mL, and the cells were added to a 384-well plate at 60 μL/well. • 6. The 384-well plate was centrifuged at 500 rpm for 1 minute, and then placed in a 37° C., 5% CO2 incubator for 6 days of cultivation. • 7. Six days later, the cell culture plate was equilibrated for 10 minutes at room temperature, 25 μL of Cell Titer-Glo was added to each well, and the mixture was shaken and mixed well and let stand for 5 minutes. The luminescence values for samples in various wells were read using a microplate reader in Luminescence mode.
The percentage of inhibition of cell proliferation by the test compound at each concentration was calculated by comparing with the values of the control group (0.3% DMSO). The IC50 values of the compounds were obtained by concentration-inhibition rate nonlinear regression analysis of the test compounds using GraphPad Prism 9.

The subject of a further data set is HCT116 cells. The data set is described as follows: HCT116 cell anti-proliferation assay. The data set is classed as cell-based. The settings on record: Homo sapiens, HCT-116, 144 h, 6 days, Cell Titer-Glo. The method, then:
HCT116 (ATCC, CCL-247) cells were cultured in McCoy's 5a complete medium (Gibco, 12330-031) containing 10% fetal bovine serum (Gibco, 10099-141C), 100 U penicillin and 100 μg/mL streptomycin (Gibco, 15140-122). The Promega kit Cell Titer-Glo (Promega: G7572) was used in this method for test.
(§1) HCT116 cells were cultured in T75 cell flasks (Corning, 430641) and the cells were placed in a 37° C., 5% CO2 incubator. Cells were passaged when reaching a cell density of 70%-80%, approximately twice per week. To perform the experiment, the test compounds were dissolved in DMSO to prepare a 10 mM stock solution, and the test compounds were added to the 384-well cell test plate (Corning, 3765) at the predetermined concentration (19.5 nM-[…]) using ECHO. HCT1169 cells were digested and 150 cells (60 μL medium) were seeded per well in the test plate. The 384-well plate was then centrifuged at 500 rpm for 1 minute, and then placed in a 37° C., 5% CO2 incubator for 6 days of cultivation. Six days later, the cell culture plate was equilibrated for 10 minutes at room temperature, 25 μL of Cell Titer-Glo was added to each well, and the mixture was shaken and mixed well and let stand for 5 minutes. The luminescence values for samples in various wells were read using a microplate reader in Luminescence mode.
The percentage of inhibition of cell proliferation by the test compound at each concentration was calculated by comparing with the values of the control group (0.2% DMSO). The IC50 values of the compounds were obtained by concentration-inhibition rate nonlinear regression analysis of the test compounds using GraphPad Prism 9.

The test system of the next data set is A2780 cells. The data set is described as follows: A2780 cell anti-proliferation assay. The data set is classed as cell-based. The settings on record: Homo sapiens, A2780, 144 h, 6 days, Cell Titer-Glo. The protocol: A2780 (ECACC) cells were cultured in RPMI-1640 complete medium (Gibco, A1049101) containing 10% fetal bovine serum (Gibco, 10099-141C), 100 U penicillin and 100 μg/mL streptomycin (Gibco, 15140-122). The Promega kit Cell Titer-Glo (Promega: G7572) was used in this method for test.
as §1, with “A2780” for “HCT116”, “once every five days.” for “approximately twice per week.”, “A2780” for “HCT1169”, “4000” for “150”
The percentage of inhibition of A2780 cell proliferation by the test compound at each concentration was calculated by comparing with the values of the control group (0.2% DMSO). The IC50 values of the compounds were obtained by concentration-inhibition rate nonlinear regression analysis of the test compounds using GraphPad Prism 9.

Another data set deals with KIF18A (Homo sapiens (Human), UniProt Q8NI77). The data set is described as follows: KIF18A ATPase activity under tubulin stimulation (ADP-Glo assay). The data set is classed as biochemical. The settings on record: KIF18A 30 nM, ATP 150 μM, pig microtubules.
Sequence of KIF18A (Q8NI77 whole entry): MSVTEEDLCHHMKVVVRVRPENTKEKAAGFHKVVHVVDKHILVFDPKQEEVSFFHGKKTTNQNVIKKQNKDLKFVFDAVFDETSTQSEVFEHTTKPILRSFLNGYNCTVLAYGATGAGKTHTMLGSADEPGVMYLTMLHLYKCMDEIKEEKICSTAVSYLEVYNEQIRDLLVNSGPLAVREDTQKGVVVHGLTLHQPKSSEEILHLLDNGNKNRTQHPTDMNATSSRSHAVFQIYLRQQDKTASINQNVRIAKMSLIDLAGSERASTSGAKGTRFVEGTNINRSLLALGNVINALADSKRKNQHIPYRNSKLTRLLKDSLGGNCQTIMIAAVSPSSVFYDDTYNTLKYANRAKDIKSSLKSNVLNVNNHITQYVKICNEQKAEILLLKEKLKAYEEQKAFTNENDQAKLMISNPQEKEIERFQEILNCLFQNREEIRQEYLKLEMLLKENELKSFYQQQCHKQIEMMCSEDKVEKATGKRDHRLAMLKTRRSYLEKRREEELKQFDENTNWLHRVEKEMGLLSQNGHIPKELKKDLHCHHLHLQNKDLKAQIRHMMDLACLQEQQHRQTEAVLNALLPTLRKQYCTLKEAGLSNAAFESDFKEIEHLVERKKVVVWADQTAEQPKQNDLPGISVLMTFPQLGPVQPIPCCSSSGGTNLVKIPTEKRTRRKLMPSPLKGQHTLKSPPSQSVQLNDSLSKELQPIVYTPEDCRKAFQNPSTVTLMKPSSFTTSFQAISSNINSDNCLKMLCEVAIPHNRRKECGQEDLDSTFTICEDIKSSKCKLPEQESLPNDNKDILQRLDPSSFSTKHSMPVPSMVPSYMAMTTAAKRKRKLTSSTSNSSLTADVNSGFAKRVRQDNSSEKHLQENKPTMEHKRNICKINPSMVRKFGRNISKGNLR
Sequence of KIF18A (P02550 whole entry partner): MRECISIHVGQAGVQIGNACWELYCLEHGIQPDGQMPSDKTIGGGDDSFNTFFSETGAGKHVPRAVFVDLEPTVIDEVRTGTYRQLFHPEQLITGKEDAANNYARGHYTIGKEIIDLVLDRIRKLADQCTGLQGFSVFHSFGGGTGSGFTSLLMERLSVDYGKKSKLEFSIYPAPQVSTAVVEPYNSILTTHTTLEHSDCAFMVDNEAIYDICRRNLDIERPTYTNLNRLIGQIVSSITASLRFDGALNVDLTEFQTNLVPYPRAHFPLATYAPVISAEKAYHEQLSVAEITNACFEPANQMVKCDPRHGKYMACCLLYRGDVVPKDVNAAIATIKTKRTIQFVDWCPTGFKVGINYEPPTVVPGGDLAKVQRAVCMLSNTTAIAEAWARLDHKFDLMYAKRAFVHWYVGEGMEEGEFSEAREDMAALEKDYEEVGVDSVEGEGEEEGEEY
Sequence of KIF18A (P02554 whole entry partner): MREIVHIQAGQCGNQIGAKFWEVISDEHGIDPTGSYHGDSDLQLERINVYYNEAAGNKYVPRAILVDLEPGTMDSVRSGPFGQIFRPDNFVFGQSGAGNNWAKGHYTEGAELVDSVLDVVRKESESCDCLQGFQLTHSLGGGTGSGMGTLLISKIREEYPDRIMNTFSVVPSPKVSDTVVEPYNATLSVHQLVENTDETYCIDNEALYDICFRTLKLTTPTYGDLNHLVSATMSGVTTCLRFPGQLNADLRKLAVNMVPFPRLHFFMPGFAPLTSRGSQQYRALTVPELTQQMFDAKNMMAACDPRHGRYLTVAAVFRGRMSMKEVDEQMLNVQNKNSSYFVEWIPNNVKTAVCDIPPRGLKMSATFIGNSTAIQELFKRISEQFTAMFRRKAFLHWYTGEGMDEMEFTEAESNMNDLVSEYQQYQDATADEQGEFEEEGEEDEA
In the next data set the test system is HCC1954 cells. In words: HCC1954 cell proliferation (Cell Titer-Glo, 6 days). The settings on record: KIF18A-sensitive tumor cells. The data set is classed as cell-based. The method, then: (§2) The inhibitory effect on the KIF18A target by the compounds of the present disclosure was evaluated by testing the inhibitory effect on proliferation of HCC1954 and HCC1395 cells by the compounds of the present disclosure.
(§3) HCC1954 (ATCC, CRL-2388) and HCC1395 (ATCC, CRL-2324) cells were cultured separately in RPMI-1640 complete medium (Gibco, A1049101) containing 20% fetal bovine serum (Gibco, 10099141C), 100 U penicillin, and 100 μg/mL streptomycin (Gibco, 15140-122). The Promega kit Cell Titer-Glo (Promega: G7572) was used in this method for test. • 1. HCC1954 (KIF18A-sensitive tumor cells) and HCC1395 (KIF18A-insensitive tumor cells) were cultured separately in T75 cell culture flasks (Corning, 430641), and the medium was placed in a 37° C., 5% CO2 incubator. • 2. When the cell density reached 70% to 80% (about 2 to 3 times per week), cells are passaged with trypsin (0.25% EDTA). • 3. The cell culture flask was taken out and the cells were separated by adding 2 mL of trypsin (0.25% EDTA source) for 5 minutes. • 4. Digestion was stopped by adding 8 mL of RPM1-1640 medium and the cell suspension was transferred to a centrifuge tube and centrifuged at 1000 rpm for 5 minutes. • 5. The cells were resuspended with 5 mL of RPMI-1640 medium. Cell density was adjusted to 5×10^3/mL (HCC1954), and 2.5×10^4/mL (HCC1395), respectively. • 6. 40 μL of cell solution was added to the 384-well plate (Corning, 3765). • 7. The 384-well plate was centrifuged at 1000 rpm for 1 minute. • 8. The cells were cultured overnight in a 37° C., 5% CO2 incubator. • 9. The next day, 40 nL of compound solution was added to the 384-well plate using Echo650. The plate was then placed in a 37° C., 5% CO2 incubator for 6 days. • 10. After 6 days, 20 μL of Cell-Titer-Glo (Promega, G7572) reagent was added per well. • 11. Luminescence values were measured using the EnVision Xcite Multilabel Reader (PerkinElmer, 2105-0020).
(§4) The percentage of inhibition of cell proliferation by the test compound at each concentration was calculated by comparing with the values of the control group (0.1% DMSO). The IC50 values of the compounds were obtained by concentration-inhibition rate nonlinear regression analysis of the test compounds using GraphPad Prism 9.

A further data set relates to HCC1395 cells. In words: HCC1395 cell proliferation (Cell Titer-Glo, 6 days). It is filed as cell-based. The settings on record: KIF18A-insensitive tumor cells. The protocol:
as §2, §3, §4

The nature of a further data set: PK study in ICR mice. The data set is classed as in vivo, mouse. The settings on record: both sexes, mouse, plasma, route and dose not given. The protocol: 6 ICR mice (male/female) were divided into two groups, administered orally and intravenously, respectively, with 3 mice/group. The mice were fasted for 10-14 hours prior to dosing with free access to water.
The test compound was weighed according to the administration dose, and prepared into a dose formulation at appropriate concentrations (for rats and mice, intravenous and oral administration at a volume of 5 mL/kg and 10 mL/kg, respectively), wherein the intravenous injection was a clear solution, and the oral preparation was a clear solution or a homogeneous suspension.
Animals were dosed by intravenous injection and oral gavage, and blood samples were collected at 0.033, 0.083, 0.25, 0.5, 1, 2, 4, 8, and 24 h after intravenous administration and 0.083, 0.25, 0.5, 1, 2, 4, 6, 8, and 24 h after oral administration. Whole blood was centrifuged at 6800 g for 6 min at 4° C. and the top plasma was stored in a −80° C. freezer for later analysis.
The DMSO stock solution of the test compound was diluted into a series of working solutions with a methanol or an acetonitrile solution, and added to a blank plasma matrix, and standard curves were generated and quality control samples were prepared. An appropriate volume of the plasma sample was taken and a suitable multiple of methanol or acetonitrile containing an internal standard was added for protein precipitation based on the response. After centrifugation of all samples at 18000 g for 10 min at 4° C., an appropriate amount of supernatant was taken for LC-MS/MS injection analysis.
Drug concentration-time curves in plasma were plotted according to test concentrations, and pharmacokinetic parameters were calculated using noncompartmental analysis by WinNonlin software, including: half-life (T½), area under the concentration-time curve from time zero to time t (AUCO-t), clearance (CL), volume of distribution at steady state (Vss) and bioavailability (F), with some of the test results shown in Table 4.

A word on the IC50: it is the concentration at which inhibition is half-maximal. Read a high IC50 as a need for much substance. For `COc1ccc(NC(=O)c2ccc(NS(=O)(=O)CCO)cc2N2CCC3(CC2)CC3)c2cc3n(c12)CCOC3` [Compound 404, 4-((2-hydroxyethyl)sulfonamido)-N-(6-methoxy-3,4-dihydro-1H-[1,4]oxazinyl[4,3-a]indol-9-yl)-2-(6-azaspiro[2.5]oct-6-yl)benzamide], the IC50 in the data set with OVCAR-3 cells (Homo sapiens, OVCAR-3, 240 h) was ≤ 50 nM; in the data set with HT-29 cells, ≤ 200 nM; with HCT116 cells, > 10000 nM; in the data set with A2780 cells, > 10000 nM.
Regarding `Cc1cc(NC(=O)c2c(N)cc(NS(=O)(=O)CCO)cc2N2CCC3(CC2)CC3)nc(N2CCC(F)(F)CC2)n1` [Example 3, 2-amino-N-(2-(4,4-difluoropiperidin-1-yl)-6-methylpyrimidin-4-yl)-4-(2-hydroxyethylsulfonamido)-6-(6-azaspiro[2.5]octan-6-yl)benzamide], the IC50 was 50 to 500 nM on KIF18A; ≤ 50 nM with OVCAR-3 cells (Homo sapiens, OVCAR-3, 240 h); ≤ 10 nM with HCC1954 cells (Homo sapiens, HCC1954, 144 h); > 5000 nM in the data set on HCC1395 cells (Homo sapiens, HCC1395, 144 h).
In the case of `Nc1cc(NS(=O)(=O)CCO)cc(N2CCC3(CC2)CC3)c1C(=O)Nc1cccc2c1ccn2CC1CC1` [Example 41], the figures for the concentration for half-maximal inhibition (IC50) at KIF18A, in the data set with OVCAR-3 cells and with HCC1954 cells were 50 to 500 nM, 50 to 500 nM and 10 to 500 nM, respectively.
`O=C(Nc1cccc2c1cc1n2CCC1)c1ccc(NS(=O)(=O)CCO)cc1N1CCC2(CC1)CC2` [Example 129, N-(2,3-dihydro-1H-pyrrolo[1,2-a]indol-8-yl)-4-((2-hydroxyethyl)sulfonamide)-2-(6-azaspiro[2.5]octan-6-yl)benzamide]: the IC50 is ≤ 50 nM against KIF18A, ≤ 10 nM in the data set on HCC1954 cells and > 5000 nM in the data set with HCC1395 cells.
For orientation: AUC means concentration integrated over time. In general, Cmax refers to the highest concentration seen after dosing. In the case of `O=C(Nc1cccc2c1cc1n2CC2(CC2)OC1)c1ccc(NS(=O)(=O)CCO)cc1N1CCC(=C(F)F)CC1` [Example 485, 2-(4-(difluoromethylene)piperidin-1-yl)-4-((2-hydroxyethyl)sulfonamido)-N-(1′H,4′H-spiro[cyclopropane-1,3′-[1,4]oxazino[4,3-a]indole]-9′-yl)benzamide], the 50% inhibitory concentration (IC50) was ≤ 50 nM against KIF18A; 50 to 500 nM with OVCAR-3 cells (Homo sapiens, OVCAR-3, 240 h); 200 to 1000 nM in the data set with HT-29 cells. For the same molecule, the area under the curve (AUC) in “PK study in ICR mice” (read-out: AUC) stood at 33300 ng·h/mL. In addition, the highest concentration (Cmax) in the data set “PK study in ICR mice” (read-out: Cmax) came out at 3740 ng/mL.
For the molecule `CC1(C)Cc2nc3c(NC(=O)c4ccc(NS(=O)(=O)CCO)cc4N4CCC5(CC4)CC5)cccc3n2C1` [Example 490, N-(2,2-dimethyl-2,3-dihydro-1H-benzo[d]pyrrolo[1,2-a]imidazol-5-yl)-4-((2-hydroxyethyl)sulfonamido)-2-(6-azaspiro[2.5]oct-6-yl)benzamide], the IC50 against KIF18A was in the range of 50 to 500 nM; with OVCAR-3 cells (Homo sapiens, OVCAR-3, 240 h) it was 50 to 500 nM; with HCC1954 cells (Homo sapiens, HCC1954, 144 h) it was 10 to 500 nM.
